Measured values: paper PMC12655185 (Pharmaceuticals, 2025)
Where a SMILES comes first, the peptide text is derived from it. [ ]: non-standard residue; d: D form. The star is where a group is joined. X1 = O=C(O)CN1CCN(CC(=O)O)CCN([C@H](CCC(=O)*)C(=O)O)CC1; Sar = CNCC(=O)O

Key:
[1] = Stability in human serum (radio-HPLC, LC-MS); assay type: in vitro ADME; details: for remaining at 24 h: read-out: radioligand intact after 24 h in human serum
Procedure: For human serum stability investigation, 60 μL of the ^67Ga labeling mixture was mixed with 540 μL human serum and incubated at 37 °C. Aliquots of 25 μL were taken after 1, 2, 4 and 24 h. The aliquots were mixed with 75 μL of a mixture called “Supersol” (20% v/v EtOH, 0.5% Triton X-100, 5 mM EDTA, 0.5 mM o-phenantroline, and 0.1% saponine in water) and put on ice for 5 min. Subsequently, the mixtures were centrifuged at 16,100 rcf, 4 °C for 5 min. The supernatant was analyzed by analytical radio-HPLC. Serum half-lives were determined by non-linear regression according to one-phase decay. To determine the stability in labeling buffer, the labeling mixture was left at ambient temperature for 4 h. Subsequently, an aliquot of 5 μL was mixed with 45 μL of Supersol and analyzed with analytical radio-HPLC.
Analytical radio-HPLC was performed on a modular unit consisting of an operating unit (smartline manager 500, Knauer, Berlin, Germany), a pump unit (smartline pump 1000, Knauer, Berlin, Germany), a photo diode array detector (smartline PDA 2800, Knauer, Berlin, Germany) and a γ-detector (Ramona Star, Raytest, Lüttich, Belgium). The system was operated by the software Chromgate 2.8. Chromatography was conducted on a C18 column (Eurospher 100-5, 250 × 4 mm, Knauer, Berlin, Germany) at a flow rate of 1 mL/min.

[2] = LogD7.4 determination (octanol/PBS); assay type: physicochemical; details: octanol / PBS pH 7.4
Procedure: The obtained solutions from ^67Ga labeling were diluted with water in a 1:1 ratio and brought to pH 7 using aqueous NaOH (1 M). For LogD7.4 determination, 10 μL of neutralized labeling solution was diluted with 290 μL 1× PBS (pH 7.4) and 300 μL 1-Octanol (both pre-saturated by each other). The mixture was vortexed vigorously for 30 s and subsequently centrifuged for 5 min at 16,100 rcf. Defined volumes of each layer (10 μL for PBS, 200 μL for Octanol) were taken and analyzed for their radioactivity (ISOMED 100, Nuvia, Frankfurt, Germany). The partition coefficient LogD7.4 was determined from the decadic logarithm of the fraction of the radioactivity content of the aqueous and octanol layers.

human serum = details: up to 24 h

A remaining at 24 h ([1]; 37 °C) of 89% and a logD [2] of -4.79 ± 0.03 were found for `CC[C@H](C)[C@H](NC(=O)[C@H](CC(N)=O)NC(=O)[C@@H]1CCCN1C(=O)[C@@H]1CCCN1C(=O)[C@H](CCCNC(=N)N)NC(=O)[C@H](CC(=O)O)NC(=O)[C@H](CC(N)=O)NC(=O)[C@@H](N)CO)C(=O)N[C@@H](CC(C)C)C(=O)N[C@@H](CCC(N)=O)C(=O)N[C@@H](CCCCN)C(=O)N[C@@H](CCCNC(=N)N)C(=O)N(C)CC(=O)N(C)CC(=O)N(C)CC(=O)N[C@@H](CCCCNC(=O)CC[C@H](C(=O)O)N1CCN(CC(=O)O)CCN(CC(=O)O)CC1)C(N)=O` [TJ12P2(K^11)-X3K-[^67Ga]Ga-NODA-GA-CONH2, metal not drawn] (H-SNDRPPNILQKR[Sar][Sar][Sar]K(X1)-NH2) in this work.

A remaining at 24 h ([1]; 37 °C) of 95% and a logD [2] of -4.61 ± 0.05 were found for `CC[C@H](C)[C@H](NC(=O)[C@H](CC(N)=O)NC(=O)[C@@H]1CCCN1C(=O)[C@@H]1CCCN1C(=O)[C@H](CCCNC(=N)N)NC(=O)[C@H](CC(=O)O)NC(=O)[C@H](CC(N)=O)NC(=O)[C@@H](N)CO)C(=O)N[C@@H](CC(C)C)C(=O)N[C@@H](CCC(N)=O)C(=O)N[C@@H](CCC(N)=O)C(=O)N[C@@H](CCCNC(=N)N)C(=O)N(C)CC(=O)N(C)CC(=O)N(C)CC(=O)N[C@@H](CCCCNC(=O)CC[C@H](C(=O)O)N1CCN(CC(=O)O)CCN(CC(=O)O)CC1)C(N)=O` [TJ12P2(Q^11)-X3K-[^67Ga]Ga-NODA-GA-CONH2, metal not drawn] (H-SNDRPPNILQQR[Sar][Sar][Sar]K(X1)-NH2) in this work.

For `CC[C@H](C)[C@H](NC(=O)[C@H](CC(N)=O)NC(=O)[C@@H]1CCCN1C(=O)[C@@H]1CCCN1C(=O)[C@H](CCCNC(=N)N)NC(=O)[C@H](CC(=O)O)NC(=O)[C@H](CC(N)=O)NC(=O)[C@H](CO)NC(=O)CC[C@H](C(=O)O)N1CCN(CC(=O)O)CCN(CC(=O)O)CC1)C(=O)N[C@@H](CC(C)C)C(=O)N[C@@H](CCC(N)=O)C(=O)N[C@@H](CCCCN)C(=O)N[C@@H](CCCNC(=N)N)C(=O)O` [[^67Ga]Ga-NODA-GA-TJ12P2(K^11), metal not drawn] (X1-SNDRPPNILQKR-OH), the remaining at 1 h ([1]; 37 °C, 1 h, read-out: radioligand intact after 1 h in human serum) was 9.3%, the half-life ([1]; human, serum, 37 °C, one-phase decay) was 17.4 min and the “degradation product in human serum” value ([1]; radio-HPLC or LC-MS after 24 h) was “formation of a single metabolite”. For the same compound, the logD [2] was -4.78 ± 0.05.

A remaining at 24 h ([1]; 37 °C) of 72% and a logD [2] of -4.79 ± 0.03 were found for `CC[C@H](C)[C@H](NC(=O)[C@H](CC(N)=O)NC(=O)[C@@H]1CCCN1C(=O)[C@@H]1CCCN1C(=O)[C@H](CCCNC(=N)N)NC(=O)[C@H](CC(=O)O)NC(=O)[C@H](CC(N)=O)NC(=O)[C@H](CO)NC(=O)CC[C@H](C(=O)O)N1CCN(CC(=O)O)CCN(CC(=O)O)CC1)C(=O)N[C@@H](CC(C)C)C(=O)N[C@@H](CCC(N)=O)C(=O)N[C@@H](CCC(N)=O)C(=O)N[C@@H](CCCNC(=N)N)C(=O)O` [[^67Ga]Ga-NODA-GA-TJ12P2(Q^11), metal not drawn] (X1-SNDRPPNILQQR-OH) in this work.

A not cleaved (human serum; 37 °C) of 95% still intact after 24 h was found for SNDRPPNILQQRXXXK(NODA-GA) in this work.

With SulfoCy3-SNDRPPNILQKR the cleaved bond (human serum) was “Lys11-arginine”.
